In patent US12060349B2, “Glucosylceramide synthase inhibitors” (Genzyme Corporation, priority 2012, dated 2024):
Where two headings read alike, the source gives them in different places.

How the values were obtained:
jck mice = test: glucosylceramide synthase inhibition in a model of polycystic kidney disease (jck mice); type: in vivo, mouse; conditions: FIG. 3
Description: Mice homozygous for the Nek8jck mutation develop polycystic kidney disease (“jck mice”). […] Disease is progressive but not evident by kidney palpation until at least 4 to 5 weeks of age. Homozygotes generally remain active until shortly before death and usually die between 20 and 25 weeks of age. […] No histologic abnormalities are found in the liver, spleen, or pancreas. (Atala et al., 1993).
To evaluate the effects of a GCS inhibitor on polycystic kidney disease, Compound 156, (S)-quinuclidin-3-yl (2-(4′-(2-methoxyethoxy)-[1,1′-biphenyl]-4-yl)propan-2-yl)carbamate was administered in the feed of jck mice at doses of 15, 30 and 50 mg/kg. A second compound, quinuclidin-3-yl (2-(4′-fluoro-[1,1′-biphenyl]-3-yl)propan-2-yl)carbamate (hereinafter “GZ 161”) was administered in the feed of jck mice at a dose of 60 mg/kg.
Administration of the compound was started between 3 and 4 weeks of age, and continued until the mice were sacrificed at 9 weeks of age. The effect of the compounds on the disease phenotype was evaluated by measurement of body weight, blood urea nitrogen (“BUN”), and serum GL1. Additional effects on kidney/body weight (K/BW), cyst volume, BUN, kidney GL1, and serum GL1 were also measured at the end of life time point of the study.

K14 mouse = K14 mouse model of type 2 Gaucher disease; type: in vivo
Description: As noted above, Gaucher Disease results from a deficiency of the lysosomal enzyme glucocerebrosidase (GC). In the most common phenotype of Gaucher disease (type 1), pathology is limited to the reticuloendothelial and skeletal systems and there are no neuropathic symptoms. See Barranger, Glucosylceramide lipidosis: Gaucher disease. In: Scriver CR BA, Sly WS, Valle D, editor. The Metabolic Basis of Inherited Disease. New York: McGraw-Hill. pp. 3635-3668 (2001). In neuropathic Gaucher disease (nGD), subdivided into type 2 and type 3 Gaucher disease, the deficiency of glucocerebrosidase (GC) causes glucosylceramide (GluCer; GL-1) and glucosylsphingosine (GluSph) to accumulate in the brain, leading to neurologic impairment. Type 2 Gaucher disease is characterized by early onset, rapid progression, extensive pathology in the viscera and central nervous system, and death usually by 2 years of age. Type 3 Gaucher disease, also known as subacute nGD, is an intermediate phenotype with varying age of onset and different degrees of severity and rates of progression. Goker-Alpan et al., The Journal of Pediatrics 143: 273-276 (2003). A recent development has produced the K14 lnl/lnl mouse model of type 2 Gaucher disease (hereinafter, the “K14 mouse”); this mouse model closely recapitulates the human disease showing ataxia, seizures, spasticity and a reduced median lifespan of only 14 days. Enquist et al., PNAS 104: 17483-17488 (2007).
As in patients with nGD, several mouse models of the disease have increased levels of GluCer and GluSph in the brain due to the deficiency in GC activity. Liu et al., PNAS 95: 2503-2508 (1998) and Nilsson, J. Neurochem 39: 709-718 (1982). The “K14” mice display a neuropathic phenotype that shares many pathologic features with type 2 Gaucher disease, such as neurodegeneration, astrogliosis, microglial proliferation, and increased levels of GluCer and GluSph in specific brain regions. Enquist et al. (2007).
Clinical management of patients affected by nGD poses a challenge for treating physicians both because of the severity of type 2 disease and the inability of the current therapies to cross the blood brain barrier (BBB). Current treatment of non-nGD relies on the intravenous delivery of recombinant human glucocerebrosidase (Imiglucerase; Cerezyme™) to replace the missing enzyme or the administration of glucosylceramide synthase inhibitors to attenuate substrate (GL-1) production. […] Current small molecule glucosylceramide synthase inhibitors in the clinic are not likely to address the neuropathic phenotypes of nGD.

C32 human melanoma cells = test: cell viability in the C32 cell-based assay (Viability, C32 IC50); conditions: Homo sapiens, concentration causing 50% cell death, values greater than 10 represent a lack of cell death
How it was run: (§1)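 Viability readouts were run alongside the GM3 cell-surface assay in the same B16 and C32 cultures. A figure above 10 indicates no cell death.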

B16 mouse melanoma cells = test: cell viability in the B16 cell-based assay (Viability, B16 IC50); conditions: Mus musculus
How it was run: as §1

[1] = target: T1, glucosylceramide synthase (Homo sapiens, UniProt Q16739); test: microsomal assay measuring conversion of ceramide to glucosylceramide by HPLC (GCS IC50); type: biochemical; conditions: concentration causing 50% inhibition of glucosylceramide synthase activity
T1 construct: Microsomes were isolated from A375 human melanoma cells; endogenous in cells; host or cells: A375 human melanoma cells (microsomal fraction, 100,000 g pellet)
T1 sequence (Q16739 1-394): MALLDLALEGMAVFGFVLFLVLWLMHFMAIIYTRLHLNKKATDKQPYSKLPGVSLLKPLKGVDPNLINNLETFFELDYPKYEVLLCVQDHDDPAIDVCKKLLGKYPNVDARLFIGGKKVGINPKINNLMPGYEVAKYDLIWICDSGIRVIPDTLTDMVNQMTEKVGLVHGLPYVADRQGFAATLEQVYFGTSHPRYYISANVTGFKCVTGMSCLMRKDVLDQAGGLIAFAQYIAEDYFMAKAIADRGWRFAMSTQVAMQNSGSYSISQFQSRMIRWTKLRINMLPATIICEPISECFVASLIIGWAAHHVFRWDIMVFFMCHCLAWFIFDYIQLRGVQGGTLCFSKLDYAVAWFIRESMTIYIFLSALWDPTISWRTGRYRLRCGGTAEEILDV
How it was run: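 IC50 is the compound concentration halving glucosylceramide synthase activity. Activity was measured in microsomes, with HPLC quantifying glucosylceramide formed from ceramide.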

[2] = tested on: GM3 expression on the cell surface, B16 mouse melanoma cells; test: cell based phenotypic assay, cell surface GM3 by antibody mediated immunofluorescence, B16 (GM3 B16 IC50); conditions: Mus musculus, 50% inhibition of GM3 expression on the cell surface
How it was run: (§2)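 Both lines undergo the phenotypic GM3 assay, and viability is recorded from that same cell-based run.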

[3] = tested on: GM3 expression on the cell surface, C32 human melanoma cells; test: cell based phenotypic assay, cell surface GM3 by antibody mediated immunofluorescence, C32 (GM3 C32 IC50); conditions: Homo sapiens, 50% inhibition of GM3 expression on the cell surface
How it was run: as §2

[4] = all three dose groups (15, 30 and 50 mg/kg in feed), vs vehicle control group
[5] = in feed at 15, 30 and 50 mg/kg, associated with GL1 inhibition

CC(C)(NC(=O)OC1CN2CCC1CC2)c1cccc(-c2ccc(F)cc2)c1 (centres unmarked) [GZ 161, quinuclidin-3-yl (2-(4′-fluoro-[1,1′-biphenyl]-3-yl)propan-2-yl)carbamate]
kidney to body weight (K/BW) (jck mice; 60 mg/kg in feed, vs vehicle control group): statistically different

CC(C)(NC(=O)OC1CN2CCC1CC2)c1cccc(-c2ccc(F)cc2)c1 (centres unmarked) [Gz161, Quinuclidin-3-yl (2-(4′-fluoro-[1,1′-biphenyl]-3-yl)propan-2-yl)carbamate]
brain GluCer (K14 mouse): reduce
brain GluSph (K14 mouse): reduce
brain neuropathology (K14 mouse): reduced
lifespan (K14 mouse): extended

COCCOc1ccc(-c2ccc(C(C)(C)NC(=O)O[C@@H]3CN4CCC3CC4)cc2)cc1 [Example 156, (S)-Quinuclidin-3-yl (2-(4′-(2-methoxyethoxy)-[1,1′-biphenyl]-4-yl)propan-2-yl)carbamate]
IC50 (C32 human melanoma cells; C32, read-out: Viability, C32 IC50, C32 cells): 763 nM
body weight (jck mice; 30 mg/kg in feed, vs vehicle control group): statistically different
body weight (jck mice; 50 mg/kg in feed, vs vehicle control group): statistically different
BUN (blood urea nitrogen) (jck mice; [4]): statistically different
cyst volume (jck mice; [4]): statistically different
kidney to body weight (K/BW) (jck mice; [4]): statistically different
cyst growth (jck mice; [5]): reduced
kidney function (jck mice; [5]): preservation
GL1 levels (jck mice; in feed at 15, 30 and 50 mg/kg, from 3-4 weeks to 9 weeks of age, vs vehicle control): dose-dependent inhibition
IC50 (B16 mouse melanoma cells; B16, read-out: Viability, B16 IC50): 4740 nM
IC50 [1]: 4.14 nM
IC50 ([2]; read-out: GM3 B16 IC50, B16 mouse melanoma cells): 43.7 nM
IC50 ([3]; read-out: GM3 C32 IC50, C32 human melanoma cells): 1.31 nM

CC(C)(NC(=O)NC1(C)CN2CCC1CC2)c1ccc(Oc2ccc(C(=O)N3CCOCC3)cc2)cc1 (centres unmarked) [Example 280, 1-(3-Methylquinuclidin-3-yl)-3-(2-(4-(4-(morpholine-4-carbonyl)phenoxy)phenyl)propan-2-yl)urea]
IC50 (C32 human melanoma cells; C32, C32 cells, read-out: Viability, C32 IC50): 1000 nM
IC50 (B16 mouse melanoma cells; B16, B16 cells, concentration causing 50% cell death, values greater than 10 represent a lack of cell death, read-out: Viability, B16 IC50): ≥ 10000 nM
IC50 [1]: 164 nM
IC50 ([2]; B16 mouse melanoma cells, read-out: GM3 B16 IC50): 1940 nM
IC50 ([3]; C32 human melanoma cells, read-out: GM3 C32 IC50): 49.1 nM
